Experimental findings from ChEMBL document CHEMBL6092154, “Design, synthesis, and evaluation of a novel TRAIL-activated HDAC6 inhibitor for the treatment of pulmonary fibrosis” (Bioorg Med Chem, 2024) are described below.

The source made the active and inactive calls. The rule behind the calls is not given here.

This assay concerns the target T1, Protein deacetylase HDAC6 (Mus musculus) (UniProt Q9Z2V5).
T1 sequence (whole entry): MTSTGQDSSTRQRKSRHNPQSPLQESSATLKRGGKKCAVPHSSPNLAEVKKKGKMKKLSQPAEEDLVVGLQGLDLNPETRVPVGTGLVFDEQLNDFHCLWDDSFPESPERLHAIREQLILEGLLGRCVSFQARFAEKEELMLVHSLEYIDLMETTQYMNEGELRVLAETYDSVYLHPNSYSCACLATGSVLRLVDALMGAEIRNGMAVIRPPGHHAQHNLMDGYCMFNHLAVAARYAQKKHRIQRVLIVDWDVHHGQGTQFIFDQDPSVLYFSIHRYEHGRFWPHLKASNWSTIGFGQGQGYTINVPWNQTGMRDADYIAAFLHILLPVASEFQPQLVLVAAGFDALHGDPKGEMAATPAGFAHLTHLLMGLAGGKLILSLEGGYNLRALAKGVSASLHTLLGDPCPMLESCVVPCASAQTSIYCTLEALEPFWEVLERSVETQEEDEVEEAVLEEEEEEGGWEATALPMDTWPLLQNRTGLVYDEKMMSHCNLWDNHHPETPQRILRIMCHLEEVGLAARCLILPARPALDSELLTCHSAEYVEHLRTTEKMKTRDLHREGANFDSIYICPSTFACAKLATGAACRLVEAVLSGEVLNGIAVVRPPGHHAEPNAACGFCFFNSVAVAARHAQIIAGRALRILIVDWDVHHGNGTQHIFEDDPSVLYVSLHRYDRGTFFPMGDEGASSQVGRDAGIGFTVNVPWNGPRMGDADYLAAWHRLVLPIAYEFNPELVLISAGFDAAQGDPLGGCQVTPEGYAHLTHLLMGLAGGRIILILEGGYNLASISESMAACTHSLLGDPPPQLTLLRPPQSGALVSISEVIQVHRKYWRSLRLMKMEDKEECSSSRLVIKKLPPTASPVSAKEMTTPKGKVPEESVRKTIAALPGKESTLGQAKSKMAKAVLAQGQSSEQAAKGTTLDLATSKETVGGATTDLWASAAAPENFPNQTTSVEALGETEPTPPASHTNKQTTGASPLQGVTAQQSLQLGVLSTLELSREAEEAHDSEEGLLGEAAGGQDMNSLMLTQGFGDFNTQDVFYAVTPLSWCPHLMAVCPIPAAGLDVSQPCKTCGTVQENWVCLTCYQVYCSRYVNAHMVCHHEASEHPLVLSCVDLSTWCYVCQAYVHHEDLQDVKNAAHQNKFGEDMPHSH
Description: In vivo inhibition of HDAC6 in bleomycin-induced idiopathic pulmonary fibrosis C57BL/6J mouse model assessed as increase in acetylated alpha-tubulin level in lung at 25 mg/kg, ig administered via gavage and measured on day 14 by western blot analysis. The note with it: time 14.0 day. The class given is functional, organism-based.

In the case of `O=C(NO)c1ccc(CN2C(=O)C3=C(CCN(Cc4cccc(Cl)c4)C3)N3CCN=C23)cc1`, the inhibition entry was “inactive”.
